For orientation: EC50 means the concentration that produces a half-maximal response. Read a low EC50 as greater potency. By IC50 is commonly meant the concentration at which inhibition is half-maximal. The low end stands for inhibition by little substance, the high end for a need for much substance.

Type in all cases: cell-based
In assay [1] the target is T1, Kv10.1 (Homo sapiens, UniProt O95259).
T1 construct: gene KCNH1
T1 sequence (O95259 1-989): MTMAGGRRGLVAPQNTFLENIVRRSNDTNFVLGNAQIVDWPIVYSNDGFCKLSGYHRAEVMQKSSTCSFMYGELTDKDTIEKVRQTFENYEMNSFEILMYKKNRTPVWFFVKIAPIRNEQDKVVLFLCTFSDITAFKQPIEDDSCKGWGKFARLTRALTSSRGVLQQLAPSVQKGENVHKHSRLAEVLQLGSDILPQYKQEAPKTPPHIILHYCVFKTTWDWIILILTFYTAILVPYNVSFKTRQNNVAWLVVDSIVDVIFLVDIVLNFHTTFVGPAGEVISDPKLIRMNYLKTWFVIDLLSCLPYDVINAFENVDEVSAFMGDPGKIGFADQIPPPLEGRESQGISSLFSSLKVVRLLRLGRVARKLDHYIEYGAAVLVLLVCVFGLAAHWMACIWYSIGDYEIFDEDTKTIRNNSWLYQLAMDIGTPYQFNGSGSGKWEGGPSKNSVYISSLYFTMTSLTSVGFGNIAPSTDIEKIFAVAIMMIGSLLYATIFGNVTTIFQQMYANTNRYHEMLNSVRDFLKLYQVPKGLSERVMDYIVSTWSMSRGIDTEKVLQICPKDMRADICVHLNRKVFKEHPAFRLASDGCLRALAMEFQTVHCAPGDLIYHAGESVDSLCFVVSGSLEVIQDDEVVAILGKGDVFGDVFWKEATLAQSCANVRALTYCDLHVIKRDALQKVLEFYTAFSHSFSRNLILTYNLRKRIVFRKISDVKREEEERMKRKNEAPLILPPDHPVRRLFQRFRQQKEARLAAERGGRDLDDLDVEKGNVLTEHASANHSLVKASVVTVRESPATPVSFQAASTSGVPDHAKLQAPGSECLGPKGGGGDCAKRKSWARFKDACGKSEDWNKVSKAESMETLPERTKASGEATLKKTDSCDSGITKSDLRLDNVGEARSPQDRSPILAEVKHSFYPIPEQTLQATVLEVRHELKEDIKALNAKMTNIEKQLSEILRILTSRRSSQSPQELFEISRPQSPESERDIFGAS
The experiment in a line: whole-cell voltage-clamp of HEK293 cells stably expressing human Kv10.[…] (activator); no effect in HEK-WT.

The target of assay [2] is T1, Kv10.1. In words: whole-cell voltage-clamp of HEK293 cells stably expressing human Kv10.[…].
Assay [3] has as its target T1, Kv10.1. In words: FLIPR membrane potential assay in HEK-Kv10.[…] cells, […]. The settings on record: read-out: % decrease at 100 μM.
For assay [4], the target named is T1, Kv10.1. The assay is described as above. Particulars: read-out: % decrease at 50 μM.

For the compound `c1ccc(-c2nnn[nH]2)c(Nc2cccc3c2CCCC3)c1` [BL, BL-1249], the EC50 on Kv10.1 [1] amounted to 36.5 µM.
Compound `Clc1ccc(COC(Cn2ccnc2)c2ccc(Cl)cc2Cl)c(Cl)c1` (stereo not drawn) [MN, miconazole nitrate] showed an IC50 against Kv10.1 [2] of 23.6 ± 5 µM.
Regarding `CN(C)CCC=C1c2ccccc2CCc2ccccc21` [amitriptyline], on Kv10.1 [3], the inhibition at 100 µM worked out at 25.5%.
Turning to `COc1ccc(CCN2CCC(Nc3nc4ccccc4n3Cc3ccc(F)cc3)CC2)cc1` [astemizole], the inhibition at 50 µM on Kv10.1 [4] came to 34.8%.
For `CNCCC(Oc1ccc(C(F)(F)F)cc1)c1ccccc1` (stereo not drawn) [fluoxetine], half-maximal inhibition at Kv10.1 [2] (IC50) was put at 11.2 ± 6.2 µM.
In the case of `CN(C)C(=O)C(CCN1CCC(O)(c2ccc(Cl)cc2)CC1)(c1ccccc1)c1ccccc1` [loperamide], the inhibition at 100 µM on Kv10.1 [3] amounted to 31.9%.
